Results from patent US20060003896A1, “Novel diterpenoid compounds imparting stress resistance to plants” (National Institute of Agrobiological Sciences, priority 2002, published 2006).

Key:
WIPK = WIPK activity measurement (MBP phosphorylation by anti-WIPK immune complex) in treated tobacco leaves; type: cell-based, Nicotiana tabacum cv. Samsun NN
Experimental: The WIPK induced activity assay was conducted as follows: A filter paper was spread in a glass Petri dish of 3 cm inside diameter, onto which the test solution for assay was added, organic solvent was removed under the flow of nitrogen gas, and 10 mM Mes-NaOH (pH 5.6) of 1 ml was added, on which three leaf disks (diameter 9 mm) stamped out of the tobacco leaves were placed per Petri dish and cultured at 24° C. In two hours, the disks were collected and immediately frozen in liquid nitrogen to be used in WIPK activity measurement that was conducted following the method described in Seo et al. (1999) Plant Cell 11, 289-291. The outline is as follows:
Crude protein of 50 μg and anti-WIPK antibody were reacted and the myelin basic protein phosphorylation activity of WIPK in the resultant immune complex was measured.
(§1) Isolated material was dissolved in dimethyl sulfoxide (DMSO) and diluted with 10 mM Mes-NaOH (pH 5.6) to an adequate concentration. If it was used in an assay, the DMSO concentration was kept below 0.1%. […] 10 mM Mes-NaOH (pH 5.6) without active substance of the invention was used as a control group. In a certain amount of time, the leaves were collected and immediately frozen in liquid nitrogen to conduct WIPK activity measurement or RNA extraction for Northern blot analysis. WIPK activity measurement, RNA extraction and Northern blot analysis were performed following Seo et al. (1999) plant Cell 11, 289-291. WIPK activity was measured 15 minutes after the subject was allowed to absorb the isolated compound at the given concentration through the petiole. Only buffer was absorbed in a control group. As another control group (healthy leaf), leaves were cut from tobacco plant body to be immediately subjected to WIPK activity measurement. For proteinase inhibitor II (PI-II), basic PR-1, basic PR-2 genes and ACO, transcription product amounts of PI-II, basic PR-1, basic PR-2 genes and ACO-coding gene were measured after allowing the subject absorb the isolated compound at the given concentration through the petiole for a period of time. As a control group, only buffer was absorbed. The outline is as follows:
(§2) Using natural isolated substances, preparations at concentrations of 10 and 100 pM, and 1 and 100 nM were prepared and these natural preparations or water were penetrated into tobacco leaf disks, followed by sampling at 30 minutes after treatment, to measure the MBP phosphorylation activity of WIPK and SIPK as described above.

SIPK = SIPK activity measurement (MBP phosphorylation by anti-SIPK immune complex) in treated tobacco leaves; type: cell-based, Nicotiana tabacum cv. Samsun NN
Experimental: As an active substance, the substance isolated in Example 1 was used as a standard. The isolated substance was dissolved in dimethyl sulfoxide (DMSO) and diluted to adequate concentration (0.3, 1.5 and 3 ng/ml) with 10 mM Mes-NaOH (pH 5.6). If it was used in an assay, the DMSO concentration was kept below 0.1%. […] 10 mM Mes-NaOH (pH 5.6) without active substance of the invention was used as a control group. In a certain amount of time, the leaves were collected and immediately frozen in liquid nitrogen to measure the SIPK activity. The measurement was conducted as follows:
Crude protein of 50 μg and anti-SIPK antibody were reacted and the myelin basic protein (MBP) phosphorylation activity of SIPK in the resultant immune complex was measured.
as §2

ACO-coding gene = assay: Northern blot analysis of transcription products in treated tobacco leaves; type: cell-based, Nicotiana tabacum cv. Samsun NN; details: through the petiole
Experimental: as §1, with “follows: Nucleic acid hybridization reaction was performed on nylon membrane containing 20 μg total RNA with ^32P-radiolabeled cDNA of tobacco PI-II, basic PR-1, basic PR-2 genes and ACO-coding gene. After the membrane was washed it was used to expose to an X-ray film.” for “follows:”

basic PR-1 gene = assay: as above; type: cell-based, Nicotiana tabacum cv. Samsun NN; details: through the petiole
Experimental: as §1, with “follows: Nucleic acid hybridization reaction was performed on nylon membrane containing 20 μg total RNA with ^32P-radiolabeled cDNA of tobacco PI-II, basic PR-1, basic PR-2 genes and ACO-coding gene. After the membrane was washed it was used to expose to an X-ray film.” for “follows:”

basic PR-2 gene = assay: as above; type: cell-based, Nicotiana tabacum cv. Samsun NN; details: through the petiole
Experimental: as §1, with “follows: Nucleic acid hybridization reaction was performed on nylon membrane containing 20 μg total RNA with ^32P-radiolabeled cDNA of tobacco PI-II, basic PR-1, basic PR-2 genes and ACO-coding gene. After the membrane was washed it was used to expose to an X-ray film.” for “follows:”

[1] = system: proteinase inhibitor II gene; assay: as above; type: cell-based, Nicotiana tabacum cv. Samsun NN
Experimental: as §1, with “follows: Nucleic acid hybridization reaction was performed on nylon membrane containing 20 μg total RNA with ^32P-radiolabeled cDNA of tobacco PI-II, basic PR-1, basic PR-2 genes and ACO-coding gene. After the membrane was washed it was used to expose to an X-ray film.” for “follows:”

JA = assay: Intrinsic JA level in tobacco leaves after absorption through the petiole; type: cell-based; details: 3-, 6-, 12- or 24-hours culture
Experimental: To evaluate whether the induction of basic pathogenesis-related protein gene (PR-1 and PR-2) and proteinase inhibitor II gene by synthetic substance occurred through JA or SA, 100 nM or 1 μM WAF-1 or water was absorbed into tobacco leaves through the petiole, followed by culture at 24° C., to measure the intrinsic level of JA.

SA = assay: Intrinsic SA level in tobacco leaves after absorption through the petiole; type: cell-based; details: 3-, 6-, 12- or 24-hours culture
ethylene = assay: Release of ethylene from treated tobacco leaf; type: cell-based
Experimental: Ethylene acts as a signal in the induction of basic PR protein of tobacco plant, so the release of ethylene was measured after externally giving WAF-1 to a tobacco leaf as above to evaluate the effects of synthetic substance on ethylene accumulation.

WIZZ gene = assay: RNA gel blotting of WIZZ transcript in tobacco leaf disks; type: cell-based; details: 1 nM, 30 minutes after penetrance
Experimental: The transition in expression of the WIZZ transcript after stimulation with WAF-1 in this invention was ascertained using the following method. Leaf disks stamped out of tobacco leaves were penetrated with 1 nM WAF-1 solution or water and collected at 30 minutes after penetrance to be used for total RNA extraction. Total RNA extraction followed the method described in Seo et al. Plant Cell 1999, 11, 289-299. Isolated total RNA was subjected to RNA gel blotting analysis following the above procedure. A fragment, whose sequence corresponded to bases 877-1211 in the WIZZ cDNA (335 bp) was amplified, and used as a probe. As an internal standard probe, actin cDNA (described in Seo et al. 2000 12, 917-932) was also used. An RNA gel blot membrane containing 20 μg total RNA per lane was analized.

vermin = assay: Presenting vermin to rice administered with the substance; type: in vivo; details: vermin presented
Experimental: Therefore, an experiment was conducted by administering this substance to plants and presenting vermin to the administered plant. In this example, rice was used as a target.

[2] = system: Arabidopsis (Arabidopsis thaliana); assay: Growth of periphery and height of stem after spraying; type: in vivo; details: sprayed, 300, 100 and 30 ng/ml, 24° C.
Experimental: (§3) In this Example, 15-day-old Arabidopsis (Arabidopsis thaliana), 1-month-old tobacco (Nicotiana tabacum cv. Samsun—NN), or 20-day-old rice (Oryza sativa) was used to provide plant bodies. The compound of this invention was dissolved in dimethyl sulfoxide (DMSO) and diluted with 10 mM Mes-NaOH (pH 5.6) to an adequate concentration (300, 100 and 30 ng/ml). 10 mM of Mes-NaOH containing the compound of this invention at the given concentration was sprayed to tobacco and rice plant bodies, followed by culture at 24° C. As a control group, 10 mM Mes-NaOH (pH 5.6) free of the compound of this invention was used. In a certain amount of time, the periphery and the height of stem above ground level were measured in rice, Arabidopsis and tobacco plant bodies.

rice (Oryza sativa) = assay: as above; type: in vivo; details: sprayed, 300, 100 and 30 ng/ml, 24° C.
Experimental: as §3

[3] = system: tobacco (Nicotiana tabacum cv. Samsun—NN); assay: as above; type: in vivo; details: sprayed, 300, 100 and 30 ng/ml, 24° C.
Experimental: as §3

petunia plant body = assay: Flowering of petunia plant bodies after spraying; type: in vivo
Experimental: In this example, 1-month-old petunia plant body was used. The compound of this invention was dissolved in dimethyl sulfoxide (DMSO) and diluted with 10 mM Mes-NaOH (pH 5.6) to an adequate concentration (300, 100 and 30 ng/ml). 10 mM Mes-NaOH containing the compound of this invention at the given concentration was sprayed on the petunia plant bodies, followed by culture at 24° C. In a control group, 10 mM Mes-NaOH (pH 5.6) without the compound of this invention was used. After a certain amount of time, observation of the gross flowering features of the plant bodies was performed. The administration of the compound of this invention to plants was then discontinued, only buffer was sprayed, and the flowering was observed.

TMV = assay: Defense of tobacco against TMV infection (necrotic lesion size, TMV coat protein); type: in vivo, tobacco mosaic virus
Experimental: To complete the infection, this healthy leaf was allowed to stand at room temperature for 30 minutes and washed with water removing the silicon carbide, after air drying, was put into a transparent plastic box spread with wet filter papers, followed by culture at 30° C. for 40 hours, then at 20° C. for 6 hours.
In this Example, the substance in this invention was administered to non-TMV-infected tobacco as a target. TMV stimulation was then given, under the same conditions as those in Example 1, to plants administered with the substance of this invention at the concentrations shown in FIG. 12 and tp control plant not administered to measure the size of necrotic lesions and the amount of TMV coat protein.

[4] = 1, 5 and 10 nM through the petiole
[5] = tobacco leaf disks, 30 minutes after treatment

CC(/C=C/[C@@H]1[C@@]2(C)CCCC(C)(C)[C@@H]2CC[C@@]1(C)O)=C\CO [WAF-1, (11E,13E)-labda-11,13-diene-8α,15-diol]
time at which WIPK activity was maximized (WIPK; [4]): 15 min
time at which induction of WIPK activity was observed (WIPK; [4]): 5 min
WIPK activity at 30 minutes (WIPK; 1, 5 and 10 nM through the petiole, 30 minutes): retained maximum activity
induction of WIPK activity (WIPK; each concentration of FIG. 2A given to leaf through the petiole, 15 minutes): induction of WIPK activity at any concentration
concentration above which activation of WIPK is significant (WIPK; [5]): > 10 pM
time at which induction of SIPK activity was maximized (SIPK; [4]): 15 min
induction of SIPK activity (SIPK; each concentration of FIG. 4 (0.3, 1.5 and 3 ng/ml) through the petiole, 15 minutes): induction of SIPK activity at any concentration
concentration above which activation of SIPK is significant (SIPK; [5]): > 10 pM
accumulation of ACO (ACO-coding gene): accumulation
accumulation of basic PR-1 (basic PR-1 gene): accumulation
accumulation of basic PR-2 (basic PR-2 gene): accumulation
amount of proteinase inhibitor II transcript compared with control group ([1]; 16 hours): significantly more
time at which accumulation of transcription products of proteinase inhibitor II gene was detected ([1]; examined in 2, 6 and 16 hours, concentration of FIG. 3, through the petiole): 16 h
amount of JA in treated leaves (JA; 100 nM): at the same level as those treated with water
amount of JA in treated leaves (JA; 1 AM (so in the source)): at the same level as those treated with water
amount of SA in treated leaves (SA; 100 nM): at the same level as those treated with water
amount of SA in treated leaves (SA; 1 AM (so in the source)): at the same level as those treated with water
level of ethylene released from leaves, relative to leaf treated with water (ethylene; 100 nM): 1.2 times
level of ethylene released from leaves, relative to leaf treated with water (ethylene; 1 μM): 1.4 times
level of WIZZ transcript compared with leaf disks impregnated with water (WIZZ gene): higher
growth in administered rice compared with rice not administered (vermin): Growth was regulated
growth of periphery and height of stem vs control group [2]: delay in growth of the periphery and height of stem
growth of height above ground level vs control group (rice (Oryza sativa)): growth of height above ground level was observed
growth of periphery and height of stem vs control group [3]: delay in growth of the periphery and height of stem
flowering after discontinuation of administration (petunia plant body; only buffer sprayed): observation of flowering
flowering vs control group (petunia plant body; sprayed, 300, 100 and 30 ng/ml, 24° C.): delay in flowering

(11E,13E)-labda-11,13-diene-8α,15-diol [WAF-1]
TMV coat protein amount (TMV; tobacco leaf, 100 pM or 100 nM vs water): decrease
concentration above which the size of necrotic lesions decreased (TMV; tobacco, TMV stimulation, 10 pM to 100 nM, dose-dependent): higher than 100 pM
